# In patent US20070128217A1 (priority 2003, published 2007):
# Assays:
# [1] = tested on: rabbit serum obtained by immunizing a rabbit with the SARS-CoV strain Frankfurt 1; type: binding; parameters: Binding of a rabbit serum to linear peptides / Binding of a rabbit serum to looped peptides / Rabbit serum linear peptides / Rabbit serum looped peptides / Binding of a rabbit serum to linear peptides of protein N of SARS-CoV Urbani (Rabbit serum linear peptides) / Binding of a rabbit serum to looped/cyclic peptides of protein N of SARS-CoV Urbani (Rabbit serum looped peptides): unit not given here
# [2] = tested on: recombinant human anti-SARS-CoV antibody 03-018; type: binding; parameters: Binding of antibody 03-018 to linear peptides of the N protein of SARS-CoV Urbani / Binding of antibody 03-018 to looped/cyclic peptides of the N protein of SARS-CoV Urbani: unit not given here
# [3] = tested on: antibodies in sera from SARS patients (sera 1a, 1b, 2, 6, 37, 62, London, SARS-yellow, SARS-green); type: binding, human; parameters: Binding of serum 6 to linear peptides of protein X1 of SARS-CoV Urbani / Binding of serum 37 to linear peptides of protein X1 of SARS-CoV Urbani / Binding of serum 6 to looped/cyclic peptide (PEPSCAN-ELISA) / Binding of serum 37 to looped/cyclic peptide (PEPSCAN-ELISA) / Binding of serum 37 to looped/cyclic peptides of protein X1 of SARS-CoV Urbani / Binding of serum 6 to linear peptides of protein X2 / Binding of serum 37 to linear peptides of protein X2 / Binding of serum 37 to looped/cyclic peptides of protein X2 of SARS-CoV Urbani / Binding of serum 6 to linear peptides of protein M of SARS-CoV Urbani / Binding of serum 37 to linear peptides of protein M of SARS-CoV Urbani / Binding of serum 6 to looped/cyclic peptides of protein M of SARS-CoV Urbani / Binding of serum 37 to looped/cyclic peptides of protein M of SARS-CoV Urbani / Binding of serum 6 to linear peptides of protein X3 of SARS-CoV Urbani / Binding of serum 37 to linear peptides of protein X3 of SARS-CoV Urbani / Binding of serum 37 to looped/cyclic peptides of protein X3 of SARS-CoV Urbani / Binding of serum 6 to linear peptides of protein X4 of SARS-CoV Urbani / Binding of serum 37 to linear peptides of protein X4 of SARS-CoV Urbani / Binding of serum 37 to looped/cyclic peptides of protein X4 of SARS-CoV Urbani / Binding of serum 6 to linear peptides of protein X5 of SARS-CoV Urbani / Binding of serum 37 to linear peptides of protein X5 of SARS-CoV Urbani / Binding of serum 37 to looped/cyclic peptides of protein X5 of SARS-CoV Urbani / Binding of serum 6 to linear peptides of protein N of SARS-CoV Urbani / Binding of serum 37 to linear peptides of protein N of SARS-CoV Urbani / Binding of serum 6 to linear peptide (PEPSCAN-ELISA) / Binding of serum 1a to looped/cyclic peptides of protein N of SARS-CoV Urbani / Binding of serum 1b to looped/cyclic peptides of protein N of SARS-CoV Urbani / Binding of serum 2 to looped/cyclic peptides of protein N of SARS-CoV Urbani / Binding of serum 6 to looped/cyclic peptides of protein N of SARS-CoV Urbani / Binding of serum 37 to looped/cyclic peptides of protein N of SARS-CoV Urbani / Binding of serum 62 to looped/cyclic peptides of protein N of SARS-CoV Urbani / Binding of serum London to looped/cyclic peptides of protein N of SARS-CoV Urbani / Binding of serum SARS-green to looped/cyclic peptides of protein N of SARS-CoV Urbani: unit not given here
# [4] = tested on: control sera (pooled serum of ten healthy LUMC hospital workers; commercial negative donor pooled serum from the Dutch bloodbank); type: binding, human; parameters: Binding of Control serum LUMC to linear peptides / Binding of Control serum Blood-bank to linear peptides / Binding of Control serum LUMC to looped peptides / Binding of Control Serum Blood-Bank to Looped peptides / Binding of Control serum LUMC to linear peptides of the protein M of SARS-CoV Urbani / Binding of Control serum Blood-bank to linear peptides of the protein M of SARS-CoV Urbani / Binding of Control serum LUMC to looped peptides of the protein M of SARS-CoV Urbani / Binding of Control Serum Blood-Bank to Looped peptides of the protein M of SARS-CoV Urbani: unit not given here
Sequence,Binding of a rabbit serum to linear peptides of protein N of SARS-CoV Urbani (Rabbit serum linear peptides) [1],Binding of a rabbit serum to looped/cyclic peptides of protein N of SARS-CoV Urbani (Rabbit serum looped peptides) [1],Binding of serum 1a to linear peptides of protein N of SARS-CoV Urbani [3],Binding of serum 1a to looped/cyclic peptides of protein N of SARS-CoV Urbani [3],Binding of serum 1b to linear peptides of protein N of SARS-CoV Urbani [3],Binding of serum 1b to looped/cyclic peptides of protein N of SARS-CoV Urbani [3],Binding of serum 2 to linear peptides of protein N of SARS-CoV Urbani [3],Binding of serum 2 to looped/cyclic peptides of protein N of SARS-CoV Urbani [3],Binding of serum 6 to linear peptides of protein N of SARS-CoV Urbani [3],Binding of serum 6 to looped/cyclic peptides of protein N of SARS-CoV Urbani [3],Binding of serum 37 to linear peptides of protein N of SARS-CoV Urbani [3],Binding of serum 37 to looped/cyclic peptides of protein N of SARS-CoV Urbani [3],Binding of serum 62 to linear peptides of protein N of SARS-CoV Urbani [3],Binding of serum 62 to looped/cyclic peptides of protein N of SARS-CoV Urbani [3],Binding of serum London to linear peptides of protein N of SARS-CoV Urbani [3],Binding of serum London to looped/cyclic peptides of protein N of SARS-CoV Urbani [3],Binding of serum SARS-green to linear peptides of protein N of SARS-CoV Urbani [3],Binding of serum SARS-green to looped/cyclic peptides of protein N of SARS-CoV Urbani [3],Binding of serum SARS-yellow to linear peptides of protein N of SARS-CoV Urbani [3],Binding of serum SARS-yellow to looped/cyclic peptides of protein N of SARS-CoV Urbani [3],further results
AFFGMSRIGMEVTPS,0.1,0.5,0.3,0.4,0.1,0.3,0.2,0.4,0.2,0.2,0.6,0.6,0.7,0.6,0.5,0.4,0.2,0.4,0.5,0.5,Binding of antibody 03-018 to linear peptides of the N protein of SARS-CoV Urbani [2]: 0.1; Binding of antibody 03-018 to looped/cyclic peptides of the N protein of SARS-CoV Urbani [2]: 0.2; Control Serum Blood-Bank Looped peptides [4]: 0.6; Control serum Blood-bank linear peptides [4]: 0.7; Control serum LUMC linear peptides [4]: 0.6; Control serum LUMC looped peptides [4]: 0.8
QFAPSASAFFGMSRI,0.1,0.4,0.2,0.4,0.1,0.2,0.1,0.4,0.1,0.2,0.4,0.6,0.4,0.7,0.4,0.4,0.1,0.5,0.5,0.3,Binding of antibody 03-018 to linear peptides of the N protein of SARS-CoV Urbani [2]: 0.1; Binding of antibody 03-018 to looped/cyclic peptides of the N protein of SARS-CoV Urbani [2]: 0.3; Control Serum Blood-Bank Looped peptides [4]: 0.6; Control serum Blood-bank linear peptides [4]: 0.7; Control serum LUMC linear peptides [4]: 0.5; Control serum LUMC looped peptides [4]: 0.6
ITFGGPTDSTDNNQN,0.1,0.3,0.2,0.3,0.1,0.2,0.1,0.3,0.1,0.2,0.7,0.6,0.6,0.5,0.5,0.4,0.3,0.7,0.4,0.3,Recognition of the peptide by antibody 03-018 [2]: recognized; Binding of Control Serum Blood-Bank to Looped peptides [4]: 0.7; Binding of Control serum Blood-bank to linear peptides [4]: 0.5; Binding of Control serum LUMC to linear peptides [4]: 0.6; Binding of Control serum LUMC to looped peptides [4]: 0.7
KSAAEASKKPRQKRT,0.1,0.2,–,0.2,–,0.1,–,0.2,–,0.1,–,0.4,–,0.2,–,0.3,–,0.1,–,0.1,"Binding of antibody 03-018 to linear peptides of the N protein of SARS-CoV Urbani [2]: 0.1; Binding of antibody 03-018 to looped/cyclic peptides of the N protein of SARS-CoV Urbani [2]: 0.1; Recognition of the peptide by sera of SARS-CoV infected individuals, and form (linear, looped/cyclic) in which it is recognized [3]: recognized in linear form; Binding of Control Serum Blood-Bank to Looped peptides [4]: 0.4; Binding of Control serum Blood-bank to linear peptides [4]: 0.7; Binding of Control serum LUMC to linear peptides [4]: 0.7; Binding of Control serum LUMC to looped peptides [4]: 0.4"
PQSNQRSAPRITFGG,–,–,0.3,0.5,0.2,0.3,0.2,0.5,0.1,0.5,0.6,0.8,0.6,0.7,0.4,0.5,0.3,0.4,0.5,0.6,Recognition of the peptide by the rabbit serum [1]: also recognized; Recognition of the peptide by antibody 03-018 [2]: recognized; Binding of Control Serum Blood-Bank to Looped peptides [4]: 0.8; Binding of Control serum Blood-bank to linear peptides [4]: 0.5; Binding of Control serum LUMC to linear peptides [4]: 0.6; Binding of Control serum LUMC to looped peptides [4]: 0.7
